Legend:
Test in all cases: KINOMEscan competition binding
Conditions in all cases: compound 10.0 µM
[1] = biological target: MAP2K7 (human) (UniProt O14733)
[2] = biological target: FGFR4 (human) (UniProt P22455)
[3] = biological target: FLT1 (human) (UniProt P17948)
[4] = biological target: SIK3 (human) (UniProt Q9Y2K2)
[5] = biological target: CAMK4 (human) (UniProt Q16566)
[6] = biological target: ACVR2A (human) (UniProt P27037)
[7] = biological target: CDK5 (human) (UniProt Q00535)
[8] = biological target: LATS1 (human) (UniProt O95835)
[9] = biological target: PRKCD (human) (UniProt Q05655)
[10] = biological target: MAPK14 (human) (UniProt Q16539)
[11] = tested on: MET (human), P08581 [M1250T]
[12] = biological target: PTK2B (human) (UniProt Q14289)
[13] = biological target: ADCK4 (human) (UniProt Q96D53)
[14] = biological target: NEK4 (human) (UniProt P51957)
[15] = biological target: EPHA5 (human) (UniProt P54756)
[16] = tested on: PIK3CA (human), P42336 [E542K]
[17] = biological target: LTK (human) (UniProt P29376)
[18] = biological target: MAP3K1 (human) (UniProt Q13233)
[19] = biological target: MST4 (human) (UniProt Q9P289)
[20] = biological target: CAMKK1 (human) (UniProt Q8N5S9)
[21] = biological target: ROCK2 (human) (UniProt O75116)
[22] = biological target: BTK (human) (UniProt Q06187)
[23] = biological target: GSK3B (human) (UniProt P49841)
[24] = biological target: SNRK (human) (UniProt Q9NRH2)
[25] = biological target: HIPK4 (human) (UniProt Q8NE63)
[26] = biological target: PIM2 (human) (UniProt Q9P1W9)
[27] = biological target: STK32C (human) (UniProt Q86UX6)
[28] = biological target: DAPK3 (human) (UniProt O43293)
[29] = biological target: CDKL5 (human) (UniProt O76039)
[30] = biological target: ROCK1 (human) (UniProt Q13464)
[31] = biological target: CDK16 (human) (UniProt Q00536)
[32] = biological target: EPHA6 (human) (UniProt Q9UF33)
[33] = biological target: DCLK1 (human) (UniProt O15075)
[34] = biological target: AURKC (human) (UniProt Q9UQB9)
[35] = biological target: CAMK2D (human) (UniProt Q13557)
[36] = biological target: MATK (human) (UniProt P42679)
[37] = biological target: MYLK3 (human) (UniProt Q32MK0)
[38] = biological target: TBK1 (human) (UniProt Q9UHD2)
[39] = biological target: HIPK2 (human) (UniProt Q9H2X6)
[40] = biological target: CaMK1 (human) (UniProt Q14012)

SNRK (human), sequence (Q9NRH2 whole entry, looked up): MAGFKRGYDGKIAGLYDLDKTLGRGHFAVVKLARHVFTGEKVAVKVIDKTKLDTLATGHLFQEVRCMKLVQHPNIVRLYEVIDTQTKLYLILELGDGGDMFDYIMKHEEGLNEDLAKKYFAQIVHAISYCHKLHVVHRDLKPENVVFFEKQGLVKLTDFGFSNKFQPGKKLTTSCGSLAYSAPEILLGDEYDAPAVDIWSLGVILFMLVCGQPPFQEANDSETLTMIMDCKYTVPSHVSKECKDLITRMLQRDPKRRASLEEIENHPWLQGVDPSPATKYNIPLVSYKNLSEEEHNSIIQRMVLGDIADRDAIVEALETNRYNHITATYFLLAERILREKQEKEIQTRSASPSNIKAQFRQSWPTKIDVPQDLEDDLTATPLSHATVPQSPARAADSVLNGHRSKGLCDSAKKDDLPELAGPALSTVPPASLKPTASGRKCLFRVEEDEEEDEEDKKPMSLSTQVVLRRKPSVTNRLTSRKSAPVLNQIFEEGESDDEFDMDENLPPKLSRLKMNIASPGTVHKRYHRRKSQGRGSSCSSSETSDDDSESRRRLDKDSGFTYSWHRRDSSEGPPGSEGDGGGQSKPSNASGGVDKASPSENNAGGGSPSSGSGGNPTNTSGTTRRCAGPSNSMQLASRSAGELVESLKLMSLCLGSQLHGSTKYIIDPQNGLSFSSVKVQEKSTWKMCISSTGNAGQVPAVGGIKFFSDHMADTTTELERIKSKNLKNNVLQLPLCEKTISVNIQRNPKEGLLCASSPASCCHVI
MATK (human), sequence (P42679 whole entry, looked up): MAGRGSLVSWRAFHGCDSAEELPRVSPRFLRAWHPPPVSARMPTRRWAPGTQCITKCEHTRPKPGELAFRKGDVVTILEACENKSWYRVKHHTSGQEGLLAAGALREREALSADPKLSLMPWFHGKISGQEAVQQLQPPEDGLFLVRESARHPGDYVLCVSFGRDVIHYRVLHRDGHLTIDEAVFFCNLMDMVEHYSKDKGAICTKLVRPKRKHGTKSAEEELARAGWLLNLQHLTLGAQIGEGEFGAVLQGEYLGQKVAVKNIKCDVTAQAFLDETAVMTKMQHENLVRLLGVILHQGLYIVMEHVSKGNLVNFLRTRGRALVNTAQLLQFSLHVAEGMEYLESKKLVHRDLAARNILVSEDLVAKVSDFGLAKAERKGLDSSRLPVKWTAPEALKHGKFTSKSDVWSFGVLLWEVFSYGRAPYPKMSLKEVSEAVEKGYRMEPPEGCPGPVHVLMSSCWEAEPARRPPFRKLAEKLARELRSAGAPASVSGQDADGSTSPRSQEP
STK32C (human), sequence (Q86UX6 whole entry, looked up): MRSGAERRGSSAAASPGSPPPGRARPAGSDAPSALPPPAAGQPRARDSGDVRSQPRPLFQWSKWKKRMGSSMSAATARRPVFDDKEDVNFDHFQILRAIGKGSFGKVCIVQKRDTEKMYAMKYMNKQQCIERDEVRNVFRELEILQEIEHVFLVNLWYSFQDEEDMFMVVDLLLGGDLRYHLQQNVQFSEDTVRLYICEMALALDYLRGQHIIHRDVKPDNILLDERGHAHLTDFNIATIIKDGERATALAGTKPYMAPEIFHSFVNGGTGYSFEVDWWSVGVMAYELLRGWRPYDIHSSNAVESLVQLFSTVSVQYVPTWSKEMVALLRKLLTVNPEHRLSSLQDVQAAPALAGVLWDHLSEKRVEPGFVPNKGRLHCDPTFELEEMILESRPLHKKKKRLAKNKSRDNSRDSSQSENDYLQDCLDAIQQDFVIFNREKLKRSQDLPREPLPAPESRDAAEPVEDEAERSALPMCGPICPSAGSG
DAPK3 (human), sequence (O43293 whole entry, looked up): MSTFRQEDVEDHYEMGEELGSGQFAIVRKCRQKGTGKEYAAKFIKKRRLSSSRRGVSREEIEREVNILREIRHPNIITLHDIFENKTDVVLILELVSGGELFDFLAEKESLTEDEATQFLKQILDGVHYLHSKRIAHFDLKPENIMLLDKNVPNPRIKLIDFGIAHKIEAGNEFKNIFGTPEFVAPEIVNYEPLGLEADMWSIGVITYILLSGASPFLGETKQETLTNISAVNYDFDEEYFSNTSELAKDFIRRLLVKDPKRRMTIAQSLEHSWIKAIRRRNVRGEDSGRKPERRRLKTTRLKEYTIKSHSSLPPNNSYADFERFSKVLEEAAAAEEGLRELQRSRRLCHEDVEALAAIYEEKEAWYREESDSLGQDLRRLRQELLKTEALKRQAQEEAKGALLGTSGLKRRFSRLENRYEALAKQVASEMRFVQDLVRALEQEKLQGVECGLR
GSK3B (human), sequence (P49841 whole entry, looked up): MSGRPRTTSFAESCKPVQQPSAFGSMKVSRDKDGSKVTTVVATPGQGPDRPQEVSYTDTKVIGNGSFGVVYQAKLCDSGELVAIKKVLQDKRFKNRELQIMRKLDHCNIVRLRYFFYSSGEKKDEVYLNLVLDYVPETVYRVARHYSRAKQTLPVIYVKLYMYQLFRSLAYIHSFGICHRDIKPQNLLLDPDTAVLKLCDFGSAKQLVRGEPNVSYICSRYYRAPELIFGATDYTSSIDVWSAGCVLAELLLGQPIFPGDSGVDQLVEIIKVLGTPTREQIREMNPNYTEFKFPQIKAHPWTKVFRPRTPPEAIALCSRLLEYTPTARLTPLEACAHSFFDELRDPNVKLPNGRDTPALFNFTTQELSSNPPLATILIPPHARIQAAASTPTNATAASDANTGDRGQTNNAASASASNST
FGFR4 (human), sequence (P22455 whole entry, looked up): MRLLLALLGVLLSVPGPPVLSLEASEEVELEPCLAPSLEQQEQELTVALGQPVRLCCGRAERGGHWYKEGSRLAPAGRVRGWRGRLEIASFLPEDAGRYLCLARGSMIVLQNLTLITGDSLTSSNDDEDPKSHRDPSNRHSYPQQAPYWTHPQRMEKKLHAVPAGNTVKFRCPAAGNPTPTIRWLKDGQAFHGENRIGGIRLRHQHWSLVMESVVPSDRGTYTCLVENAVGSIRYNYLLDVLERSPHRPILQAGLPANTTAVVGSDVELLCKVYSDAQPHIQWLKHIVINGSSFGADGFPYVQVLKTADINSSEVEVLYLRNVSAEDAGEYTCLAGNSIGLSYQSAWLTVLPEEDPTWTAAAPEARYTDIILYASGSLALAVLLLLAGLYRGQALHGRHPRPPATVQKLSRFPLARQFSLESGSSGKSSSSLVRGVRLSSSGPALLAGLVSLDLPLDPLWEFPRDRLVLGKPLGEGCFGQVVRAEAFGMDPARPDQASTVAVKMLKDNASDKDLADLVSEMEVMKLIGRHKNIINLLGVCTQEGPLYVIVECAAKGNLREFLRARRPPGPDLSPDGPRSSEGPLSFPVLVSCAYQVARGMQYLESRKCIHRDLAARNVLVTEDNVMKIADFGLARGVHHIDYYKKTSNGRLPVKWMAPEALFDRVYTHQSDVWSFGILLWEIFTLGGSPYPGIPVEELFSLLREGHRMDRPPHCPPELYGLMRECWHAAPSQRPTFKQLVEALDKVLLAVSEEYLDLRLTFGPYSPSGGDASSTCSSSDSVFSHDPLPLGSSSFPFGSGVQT
CAMKK1 (human), sequence (Q8N5S9 whole entry, looked up): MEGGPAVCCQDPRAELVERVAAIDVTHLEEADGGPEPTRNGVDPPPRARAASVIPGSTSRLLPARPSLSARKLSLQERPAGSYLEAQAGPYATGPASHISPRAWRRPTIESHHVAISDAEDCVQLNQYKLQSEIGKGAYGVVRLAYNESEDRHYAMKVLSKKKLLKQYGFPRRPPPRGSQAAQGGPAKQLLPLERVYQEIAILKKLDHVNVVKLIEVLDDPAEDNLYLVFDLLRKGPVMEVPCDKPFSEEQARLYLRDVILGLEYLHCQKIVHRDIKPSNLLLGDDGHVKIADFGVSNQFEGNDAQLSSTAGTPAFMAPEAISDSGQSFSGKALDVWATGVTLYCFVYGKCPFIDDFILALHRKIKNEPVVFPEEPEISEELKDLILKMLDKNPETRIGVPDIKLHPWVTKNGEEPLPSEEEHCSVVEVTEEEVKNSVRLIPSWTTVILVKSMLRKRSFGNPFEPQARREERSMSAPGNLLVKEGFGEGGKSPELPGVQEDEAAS
PIM2 (human), sequence (Q9P1W9 whole entry, looked up): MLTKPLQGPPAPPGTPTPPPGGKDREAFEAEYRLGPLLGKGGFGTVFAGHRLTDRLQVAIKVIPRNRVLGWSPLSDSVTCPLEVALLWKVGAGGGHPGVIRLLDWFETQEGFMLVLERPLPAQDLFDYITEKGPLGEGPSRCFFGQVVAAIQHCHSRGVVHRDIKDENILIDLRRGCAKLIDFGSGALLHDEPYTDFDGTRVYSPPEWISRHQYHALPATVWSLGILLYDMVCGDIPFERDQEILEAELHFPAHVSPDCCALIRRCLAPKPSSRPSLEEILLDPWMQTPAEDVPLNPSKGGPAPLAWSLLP
TBK1 (human), sequence (Q9UHD2 whole entry, looked up): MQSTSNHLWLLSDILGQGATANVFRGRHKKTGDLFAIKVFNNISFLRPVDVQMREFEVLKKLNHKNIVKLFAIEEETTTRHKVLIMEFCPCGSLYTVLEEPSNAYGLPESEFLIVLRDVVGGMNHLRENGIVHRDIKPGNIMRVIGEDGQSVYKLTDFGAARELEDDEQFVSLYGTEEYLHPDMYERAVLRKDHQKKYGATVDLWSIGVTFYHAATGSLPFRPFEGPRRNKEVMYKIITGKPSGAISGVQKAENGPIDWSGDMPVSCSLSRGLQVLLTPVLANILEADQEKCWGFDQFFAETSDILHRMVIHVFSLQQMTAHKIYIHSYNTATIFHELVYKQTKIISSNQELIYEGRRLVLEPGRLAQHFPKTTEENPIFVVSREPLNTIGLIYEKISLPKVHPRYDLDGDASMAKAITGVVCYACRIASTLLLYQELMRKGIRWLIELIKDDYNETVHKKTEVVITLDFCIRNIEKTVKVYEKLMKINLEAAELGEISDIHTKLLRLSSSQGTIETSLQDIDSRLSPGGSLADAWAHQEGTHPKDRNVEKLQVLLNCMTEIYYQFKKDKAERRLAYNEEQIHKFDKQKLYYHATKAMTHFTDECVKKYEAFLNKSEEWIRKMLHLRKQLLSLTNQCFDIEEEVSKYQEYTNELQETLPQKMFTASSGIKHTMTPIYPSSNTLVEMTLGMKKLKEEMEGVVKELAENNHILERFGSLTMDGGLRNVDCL

SMILES	kinase still bound, per cent of control [1] [%]	kinase still bound, per cent of control [2] [%]	kinase still bound, per cent of control [3] [%]	kinase still bound, per cent of control [4] [%]	kinase still bound, per cent of control [5] [%]	kinase still bound, per cent of control [6] [%]	kinase still bound, per cent of control [7] [%]	kinase still bound, per cent of control [8] [%]	kinase still bound, per cent of control [9] [%]	kinase still bound, per cent of control [10] [%]	kinase still bound, per cent of control [11] [%]	kinase still bound, per cent of control [12] [%]	kinase still bound, per cent of control [13] [%]	kinase still bound, per cent of control [14] [%]	kinase still bound, per cent of control [15] [%]	kinase still bound, per cent of control [16] [%]	kinase still bound, per cent of control [17] [%]	kinase still bound, per cent of control [18] [%]	kinase still bound, per cent of control [19] [%]	kinase still bound, per cent of control [20] [%]	also measured
COc1cc2ncnc(Nc3cccc(Cl)c3)c2cc1OC	73	98	75	53	100	92	100	100	97	63	94	86	28	76	55	55	48	16	84	74	kinase still bound, per cent of control [21]: 39%; kinase still bound, per cent of control [22]: 70%; kinase still bound, per cent of control [23]: 90%; kinase still bound, per cent of control [24]: 71%; kinase still bound, per cent of control [25]: 6.1%; kinase still bound, per cent of control [26]: 74%; kinase still bound, per cent of control [27]: 100%; kinase still bound, per cent of control [28]: 35%; kinase still bound, per cent of control [29]: 97%; kinase still bound, per cent of control [30]: 41%; kinase still bound, per cent of control [31]: 90%; kinase still bound, per cent of control [32]: 11%; kinase still bound, per cent of control [33]: 54%; kinase still bound, per cent of control [34]: 49%; kinase still bound, per cent of control [35]: 61%; kinase still bound, per cent of control [36]: 48%; kinase still bound, per cent of control [37]: 76%; kinase still bound, per cent of control [38]: 45%; kinase still bound, per cent of control [39]: 80%; kinase still bound, per cent of control [40]: 81%
N#Cc1cc(-c2ccnc(Nc3ccc(-n4cnc(-c5cccnc5)n4)cc3)n2)cc(N2CCOCC2)c1	100	99	48	100	100	16	79	100	65	100	23	20	0.25	100	91	100	77	100	62	48	kinase still bound, per cent of control [21]: 25%; kinase still bound, per cent of control [22]: 74%; kinase still bound, per cent of control [23]: 3.1%; kinase still bound, per cent of control [24]: 90%; kinase still bound, per cent of control [25]: 13%; kinase still bound, per cent of control [26]: 100%; kinase still bound, per cent of control [27]: 89%; kinase still bound, per cent of control [28]: 73%; kinase still bound, per cent of control [29]: 7%; kinase still bound, per cent of control [30]: 52%; kinase still bound, per cent of control [31]: 6.8%; kinase still bound, per cent of control [32]: 72%; kinase still bound, per cent of control [33]: 100%; kinase still bound, per cent of control [34]: 40%; kinase still bound, per cent of control [35]: 24%; kinase still bound, per cent of control [36]: 62%; kinase still bound, per cent of control [37]: 100%; kinase still bound, per cent of control [38]: 35%; kinase still bound, per cent of control [39]: 6.2%; kinase still bound, per cent of control [40]: 83%
C=CC(=O)Nc1ccc(C(=O)c2sc(Nc3ccc(N4CCN(C)CC4)cc3OC)nc2N)cc1	93	26	97	95	100	100	86	82	100	2.7	91	42	45	97	89	100	5.6	100	99	3.3	kinase still bound, per cent of control [21]: 24%; kinase still bound, per cent of control [22]: 94%; kinase still bound, per cent of control [23]: 100%; kinase still bound, per cent of control [24]: 0.2%; kinase still bound, per cent of control [25]: 4.6%; kinase still bound, per cent of control [26]: 100%; kinase still bound, per cent of control [27]: 84%; kinase still bound, per cent of control [28]: 2.6%; kinase still bound, per cent of control [29]: 74%; kinase still bound, per cent of control [30]: 42%; kinase still bound, per cent of control [31]: 67%; kinase still bound, per cent of control [32]: 88%; kinase still bound, per cent of control [33]: 5.6%; kinase still bound, per cent of control [34]: 68%; kinase still bound, per cent of control [35]: 2.1%; kinase still bound, per cent of control [36]: 25%; kinase still bound, per cent of control [37]: 100%; kinase still bound, per cent of control [38]: 100%; kinase still bound, per cent of control [39]: 40%; kinase still bound, per cent of control [40]: 8.2%

— the kinase profiling compilation of Christmann-Franck et al. (2016)
